{"source": "patent US9655362B2", "about": "“Fungicidal composition and method for controlling plant diseases” (ISHIHARA SANGYO KAISHA, LTD., priority 2003, dated 2017)", "key": {"[1]": {"test_system": "Erysiphe graminis", "test": "Test on preventive effect against wheat powdery mildew", "format": "in vivo", "set-up": "key: % = treated/untreated average lesion area ×100", "experimental": "Wheat (cultivar: […] After the chemical solution dried, conidia of Erysiphe graminis were dusted and inoculated and maintained in a constant temperature chamber at 20° C. […] The average lesion area in the non-treated plot was determined in the same manner as for the treated plot except that water was applied by a spray gun instead of the chemical solution. Disease rate=(a/b)×100 a: average lesion area in the treated plot b: average lesion area in the non-treated plot Theoretical values were calculated in accordance with the Colby's formula. The fungicidal composition of the present invention has a synergistic effect regarding the test on preventive effect against wheat powdery mildew, when the experimental value is lower than the theoretical value."}, "[2]": {"test_system": "Sphaerotheca cucurbitae", "test": "Test on preventive effect against cucumber powdery mildew", "format": "in vivo", "set-up": "scale not given here", "experimental": "Cucumber (cultivar: Suyo) was cultivated in a plastic pot having a diameter of 7.5 cm, and when it reached 1.5-leaf stage, 10 ml of a chemical solution having the compound of the present invention adjusted to a prescribed concentration, was applied by a spray gun. After the chemical solution dried, a suspension of conidia of Sphaerotheca cucurbitae was sprayed and inoculated and maintained in a constant temperature chamber at 20° C. From 6 to 11 days after the inoculation, the area of sporulation was investigated, and the disease rate was determined in the same manner as in Test Example 3, and the results are shown in Tables 54 to 96. The average lesion area in the non-treated plot was determined in the same manner as for the treated plot except that water was applied by a spray gun instead of the chemical solution.\nFurther, theoretical values by the Colby's formula are shown in brackets in Tables 54 to 96."}, "[3]": {"conditions": "other fungicide alone, dose 1.6 g/ha"}, "[4]": {"conditions": "other fungicide alone, concentration 31 ppm"}, "[5]": {"conditions": "other fungicide alone, concentration 63 ppm"}, "[6]": {"conditions": "Compound No. alone, concentration 16 ppm"}, "[7]": {"conditions": "single agent, 4 ppm, area of sporulation 6 to 11 days after inoculation"}, "[8]": {"conditions": "single agent, 8 ppm, area of sporulation 6 to 11 days after inoculation"}, "[9]": {"conditions": "single agent, 1 ppm, area of sporulation 6 to 11 days after inoculation"}, "[10]": {"conditions": "single agent, 2 ppm, area of sporulation 6 to 11 days after inoculation"}, "[11]": {"conditions": "other fungicide alone, dose 12.5 g/ha"}, "[12]": {"conditions": "other fungicide alone, concentration 8 ppm"}, "[13]": {"conditions": "other fungicide alone, concentration 4 ppm"}, "[14]": {"conditions": "other fungicide alone, concentration 16 ppm"}, "[15]": {"conditions": "other fungicide alone, dose 3.1 g/ha"}, "[16]": {"conditions": "other fungicide alone, dose 6.3 g/ha"}, "[17]": {"conditions": "other fungicide alone, concentration 2 ppm"}}, "note": "Where “and” joins values, the source holds several entries; their conditions need not be identical. Identical values can stand only once.", "data": [{"compound": "Fc1ccc([C@]2(Cn3cncn3)O[C@H]2c2ccccc2Cl)cc1", "note": "(racemic) [Epoxiconazole]", "values": [{"measurement": "Disease rate", "setting": "[1]; [3]", "result": 100}]}, {"compound": "CO/C=C(/C(=O)OC)c1ccccc1Oc1cc(Oc2ccccc2C#N)ncn1", "note": "[Azoxystrobin]", "values": [{"measurement": "Disease rate", "setting": "[2]; [4]", "result": "100 and 80.4"}, {"measurement": "Disease rate", "setting": "[2]; [5]", "result": 100}, {"measurement": "Disease rate", "setting": "[2]; other fungicide alone, concentration 125 ppm", "result": 100}]}, {"compound": "COc1cc(C)c(C(=O)c2c(F)ncc(C)c2I)c(OC)c1OC", "note": "[Compound No. 18, 3-(2,3,4-trimethoxy-6-methylbenzoyl)-2-fluoro-4-iodo-5-methylpyridine]", "values": [{"measurement": "melting point", "result": "140 to 141", "unit": "°C"}]}, {"compound": "COc1cc(C)c(C(=O)c2c(OC)ncc(Br)c2Cl)c(OC)c1OC", "note": "[Compound No. 23, 3-(2,3,4-trimethoxy-6-methylbenzoyl)-5-bromo-4-chloro-2-methoxypyridine]", "values": [{"measurement": "Disease rate", "setting": "[2]; Compound No. alone, concentration 2 ppm", "result": 100}, {"measurement": "Disease rate", "setting": "[2]; [6]", "result": 30.7}, {"measurement": "Disease rate", "setting": "[2]; [7]", "result": 79.2}, {"measurement": "Disease rate", "setting": "[2]; [8]", "result": 19.8}, {"measurement": "Disease rate", "setting": "[2]; single agent, 16 ppm, area of sporulation 6 to 11 days after inoculation", "result": 2.4}, {"measurement": "melting point", "result": "84 to 87", "unit": "°C"}]}, {"compound": "COc1cc(C)c(C(=O)c2c(OC)ncc(Cl)c2C)c(OC)c1OC", "note": "[Compound No. 35, 3-(2,3,4-trimethoxy-6-methylbenzoyl)-5-chloro-2-methoxy-4-methylpyridine]", "values": [{"measurement": "Disease rate", "setting": "[2]; [6]", "result": 80.4}, {"measurement": "Disease rate", "setting": "[2]; [9]", "result": 56.8}, {"measurement": "Disease rate", "setting": "[2]; [10]", "result": 14.2}]}, {"compound": "COc1cc(C)c(C(=O)c2c(Cl)cnc(Cl)c2C(F)(F)F)c(OC)c1OC", "note": "[Compound No. 39, 4-(2,3,4-trimethoxy-6-methylbenzoyl)-2,5-dichloro-3-trifluoromethylpyridine]", "values": [{"measurement": "Disease rate", "setting": "[1]; Compound No. alone, dose 1.6 g/ha", "result": 58.8}, {"measurement": "Disease rate", "setting": "[2]; [6]", "result": 20}, {"measurement": "Disease rate", "setting": "[2]; [7]", "result": 32.0}, {"measurement": "Disease rate", "setting": "[2]; [8]", "result": 14.2}, {"measurement": "melting point", "result": "106 to 109", "unit": "°C"}]}, {"compound": "COc1cc(C)c(C(=O)c2c(OC)cnc(Cl)c2C(F)(F)F)c(OC)c1OC", "note": "[Compound No. 40, 4-(2,3,4-trimethoxy-6-methylbenzoyl)-2-chloro-3-trifluoromethyl-5-methoxypyridine]", "values": [{"measurement": "Disease rate", "setting": "[2]; [9]", "result": 71.0}, {"measurement": "Disease rate", "setting": "[2]; [10]", "result": 42.6}, {"measurement": "melting point", "result": "117 to 119", "unit": "°C"}]}, {"compound": "COc1cc(C)c(C(=O)c2c(OC)cncc2C(F)(F)F)c(OC)c1OC", "note": "[Compound No. 122, 4-(2,3,4-trimethoxy-6-methylbenzoyl)-3-methoxy-5-trifluoromethylpyridine]", "values": [{"measurement": "melting point", "result": "103 to 106", "unit": "°C"}]}, {"compound": "Cc1ccc(-c2c(Cl)nc(C#N)n2S(=O)(=O)N(C)C)cc1", "note": "[Cyazofamid]", "values": [{"measurement": "Disease rate", "setting": "[2]; [4]", "result": 100}, {"measurement": "Disease rate", "setting": "[2]; [5]", "result": 100}]}, {"compound": "CC(C1CC1)C(O)(Cn1cncn1)c1ccc(Cl)cc1", "note": "(centres unmarked) [Cyproconazole]", "values": [{"measurement": "Disease rate", "setting": "[1]; [11]", "result": 15.0}]}, {"compound": "CC(Cc1ccc(C(C)(C)C)cc1)CN1C[C@@H](C)O[C@@H](C)C1", "note": "(some centres unmarked) [Fenpropimorph]", "values": [{"measurement": "Disease rate", "setting": "[1]; other fungicide alone, dose 25 g/ha", "result": 100}]}, {"compound": "O=c1c2cc(F)ccc2nc(-n2cncn2)n1-c1ccc(Cl)cc1Cl", "note": "[Fluquinconazole]", "values": [{"measurement": "Disease rate", "setting": "[1]; other fungicide alone, dose 50 g/ha", "result": 30.0}, {"measurement": "Disease rate", "setting": "[1]; other fungicide alone, dose 200 g/ha", "result": 7.5}, {"measurement": "Disease rate", "setting": "[1]; other fungicide alone, dose 400 g/ha", "result": 2.5}]}, {"compound": "Clc1ccc(CSC(Cn2cncn2)=Nc2ccc(Cl)cc2Cl)cc1", "note": "[Imibenconazole]", "values": [{"measurement": "Disease rate", "setting": "[2]; [12]", "result": 100}]}, {"compound": "CCCCCCCCCCCCc1ccc(S(=O)(=O)O)cc1.CCCCCCCCCCCCc1ccc(S(=O)(=O)O)cc1.CCCCCCCCCCCCc1ccc(S(=O)(=O)O)cc1.NC(N)=NCCCCCCCCNCCCCCCCCN=C(N)N", "note": "[Iminoctadine albesilate]", "values": [{"measurement": "Disease rate", "setting": "[2]; [13]", "result": "85.9 and 93.8"}, {"measurement": "Disease rate", "setting": "[2]; [12]", "result": "83.9 and 60.7 and 45.0"}, {"measurement": "Disease rate", "setting": "[2]; [14]", "result": "35.3 and 30.0 and 49.4"}]}, {"compound": "CC#Cc1cc(C)nc(Nc2ccccc2)n1", "note": "[Mepanipyrim]", "values": [{"measurement": "Disease rate", "setting": "[2]; [12]", "result": 100}]}, {"compound": "CC1(C)CCC(Cc2ccc(Cl)cc2)C1(O)Cn1cncn1", "note": "(centres unmarked) [Metconazole]", "values": [{"measurement": "Disease rate", "setting": "[1]; [3]", "result": 44.1}, {"measurement": "Disease rate", "setting": "[1]; [15]", "result": 19.6}, {"measurement": "Disease rate", "setting": "[1]; [16]", "result": 4.9}]}, {"compound": "COc1cc(C)c(C(=O)c2c(OC)ccc(Br)c2C)c(OC)c1OC", "note": "[Metrafenone]", "values": [{"measurement": "Disease rate", "setting": "[1]; [15]", "result": 100}, {"measurement": "Disease rate", "setting": "[1]; [16]", "result": 80.0}, {"measurement": "Disease rate", "setting": "[1]; [11]", "result": 60.0}]}, {"compound": "CC1(C)COC(C)(CCCc2ccc(Cl)cc2)N1C(=O)n1ccnc1.CC1(C)COC(C)(CCCc2ccc(Cl)cc2)N1C(=O)n1ccnc1.O=C(O)/C=C/C(=O)O", "note": "(centres unmarked) [Oxpoconazole fumarate]", "values": [{"measurement": "Disease rate", "setting": "[2]; [12]", "result": "100 and 80.0"}, {"measurement": "Disease rate", "setting": "[2]; [14]", "result": "100 and 60.0"}, {"measurement": "Disease rate", "setting": "[2]; [4]", "result": "45.5 and 30.0"}]}, {"compound": "CC1(C)COC(C)(CCCc2ccc(Cl)cc2)N1C(=O)n1ccnc1", "note": "(centres unmarked) [Oxpoconazole]", "values": [{"measurement": "Disease rate", "setting": "[2]; [8]", "result": 44.5}]}, {"compound": "CCCC1COC(Cn2cncn2)(c2ccc(Cl)cc2Cl)O1", "note": "(centres unmarked) [Propiconazole]", "values": [{"measurement": "Disease rate", "setting": "[1]; [15]", "result": 100}, {"measurement": "Disease rate", "setting": "[1]; [11]", "result": 11.6}]}, {"compound": "CC(C)(C)C(O)(CCc1ccc(Cl)cc1)Cn1cncn1", "note": "(centres unmarked) [Tebuconazole]", "values": [{"measurement": "Disease rate", "setting": "[2]; [17]", "result": 56.8}, {"measurement": "Disease rate", "setting": "[2]; [13]", "result": 71.0}]}, {"compound": "FC(F)C(F)(F)OCC(Cn1cncn1)c1ccc(Cl)cc1Cl", "note": "(centres unmarked) [Tetraconazole]", "values": [{"measurement": "Disease rate", "setting": "[1]; [15]", "result": 80.0}, {"measurement": "Disease rate", "setting": "[1]; [16]", "result": 35.0}, {"measurement": "Disease rate", "setting": "[2]; [17]", "result": 56.8}, {"measurement": "Disease rate", "setting": "[2]; [13]", "result": 56.8}]}, {"compound": "CC(C)(C)C(O)C(Oc1ccc(Cl)cc1)n1cncn1", "note": "(centres unmarked) [Triadimenol]", "values": [{"measurement": "Disease rate", "setting": "[1]; [15]", "result": 65}, {"measurement": "Disease rate", "setting": "[1]; [11]", "result": 19.0}]}, {"compound": "Polyoxins", "values": [{"measurement": "Disease rate", "setting": "[2]; [4]", "result": "100 and 80.4 and 80.0"}]}]}
